# Experimental data: US8344113B2, “Diagnostic tumor markers, drug screening for tumorigenesis inhibition, and compositions and methods for treatment of cancer” (Minerva Biotechnologies Corporation, priority 2000, dated 2013)
# No end group written: not given here.
# Legend:
# [1] = tested on: MUC1 receptor fragments (self-aggregation); assay: Colloid color-change self-aggregation assay of MUC1-derived peptides; format: binding, human; conditions: peptide on NTA-Ni colloids
# Description: Histidine-tagged peptides were synthesized with the sequences shown in table 1 (the various regions of MUC1). The lyophilized peptides were dissolved in DMSO to give a final concentration of 5 mM. A stock solution of each peptide was made by dissolving 4 μl 5 mM DMSO stock in 196 μl Phosphate-Buffered-Saline (PBS) for a resulting concentration of 100 μM. 20 μl of each 100 μM peptide solution was added to 100 μl colloids presenting NTA-Ni to capture the histidine tag of the peptides. The colloids were incubated with the histidine-tagged peptides at room temperature for 10 minutes to allow binding of the histidine-tags to the NTA-Ni on the surface of the colloids. 20 μl aliquots of each peptides species on colloids was then mixed with 20 μl of every other peptide species and with 60 μl of phosphate buffer pH 7.4. The color change of the colloid solutions was recorded after 15 minutes, see FIG. 2. Row A contains the His-PSIBR (primary sequence interchain binding region) peptide; Row B contains the His-TR peptide; Row C contains the His-RM2 peptide; Row D contains the His-PSMGFR peptide. Column 1 contains the His-PSIBR peptide; Column 2 contains the His-TR peptide; Column 3 contains the His-RM2 peptide; and Column 4 contains the His-PSMGFR peptide. […] During this period, the set of colloids incubated with the His-PSIBR peptide changed color from pink to blue. Only the well of Row A, Column 1, which is the cross section of PSIBR with itself, turned from pink to blue within the first 10 minutes.
# The colloid sets were centrifuged to form a pellet and were resuspended in phosphate buffer. […] Since there was only one peptide species on the colloids, the binding interaction must be the PSIBR peptide binding to itself. The other sets of colloids bound to peptides were assayed for their interaction with one another by mixing 15 μl of one colloid type with 15 μl of a second colloid type and 70 μl phosphate buffer.
# The peptide was attached to colloid particles presenting NTA thiols, as in other experiments described herein. […]
# [2] = tested on: T47D cells; assay: Modulation of the inhibitory effect of Etomoxir on cell proliferation by added PSMGFR; format: cell-based, human
# Description: The following experiment was performed in triplicate. T47D cells were grown to approximately 30% confluency. […] Then, a synthetic peptide (PSMGFR) was added to the cell growth media under normal cell growth conditions.
# [3] = biological target: T1, MGFR portion of the MUC1 receptor and its activating ligand(s) (Homo sapiens, UniProt P15941, R1131P); assay: Colloid-based color-change drug screening assay (His-PSMGFR colloids plus T47D cell lysate); format: binding; conditions: final drug concentration approximately 100 μM
# T1 construct: made in house; host or cells: chemical synthesis (synthetic peptide)
# T1 sequence (P15941 with tags, fused parts or gaps R1131P): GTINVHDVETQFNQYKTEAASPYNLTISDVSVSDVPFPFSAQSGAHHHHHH
# Description: In a typical example, 1.5 ml of commercially available gold colloid (Auro Dye by Amersham) were pelleted by centrifugation in a microfuge on high for 10 minutes. The pellet was resuspended in 100 μL of the storage buffer (sodium citrate and tween-20). 100 μL of a dimethyl formamide (DMF) solution containing thiols. Following a 3-hour incubation in the thiol solution, the colloids were pelleted and the supernatant discarded. They were then heat cycled in 100 μL of 400 μM tri-ethylene glycol-terminated thiol in DMF for 2 minutes at 55° C., 2 minutes at 37° C., 1 minute at 55° C., 2 minutes at 37° C., then room temperature for 10 minutes. Heat cycling results in the elimination of any species that are not in the lowest energy confirmation, resulting in a stable, close-packed, self-assembled monolayer. Heat cycling can be carried out with any of a wide variety of self-assembled monolayer-forming species. The colloids were then pelleted and 100 μL 100 mM NaCl phosphate buffer were added. The colloids were then diluted 1:1 with 180 μM NiSO4 in the colloid storage buffer.
# Thiols used in coating colloids typically were derived from solutions containing about 40 μM nitrilo tri-acetic acid (NTA)-thiol, and other thiols such as methyl-terminated thiol (HS—(CH2)15 CH3), 40% tri-ethylene glycol-terminated thiol, HS(CH2)11[…], (formula) and 50% poly(ethynylphenyl) thiol (C16H10S).
# Colloid aggregation can be sensitively detected by monitoring color change of colloid particles which are initially disperse in suspension. Aggregation results in a color change to blue. No auxiliary signaling entity is necessary. In drug screening, aggregation (or lack thereof) is observed in the presence of candidate drugs.
# The following is an example of a working drug screening assay to identify anti-cancer agents. In this example, a histidine-tagged peptide derived from the portion of the MUC1 receptor that remains attached to the cell surface after receptor cleavage (His-PSMGFR) was attached to NTA-nickel-SAM-coated gold colloids. The peptide-presenting colloids were incubated with lysates/supernatants from MUC1 presenting cells that were shown herein to contain ligands that cause dimerization or multimerization of that portion of the MUC1 receptor. This ligand-induced multimerization of the MGFR portion of the receptor causes the attached colloids to be drawn close together, which causes a change in the color of the colloid solution from pink to blue. Drugs that interfere with the binding of activating ligands to the MGFR portion of the receptor cause the solution to remain pink.
# Negative control wells contained colloids bound with a random sequence histidine-tagged peptide in place of the MUC1 peptide. […] The well containing colloids that presented the PSMGFR peptide plus T47D cell lysates (Well A) changed color from pink to blue, indicating the presence of a multimerizing ligand. Wells that contained a random sequence peptide (RGD) in place of the PSMGFR peptide (Well B) remained pink. Wells that contained phosphate buffer in place of cell lysate also remained pink (Wells C and D).
# T47D cells were trypsinized from a T25 flask, pelleted, resuspended in phosphate buffer, and lysed by sonication to release the ligand into solution. NTA-SAM-coated colloids were bound with the His-PSMGFR peptide:
# 200 μl NTA-SAM-coated colloids were incubated with 20 μl 100 μM peptide in phosphate buffer for 15 minutes, pelleted to remove unbound peptide, and resuspended in phosphate buffer. […]
# [4] = tested on: T47D cells; assay: Cell proliferation assay, MUC1 tumor cells treated with drug candidates; format: cell-based, human; conditions: for Selective inhibition of proliferation of MUC1-expressing tumor cells over control cells: T47D versus K293, 48 hours; for Cell growth (percent cell growth over 48 hours): T47D cells
# Description: (§1) T47D cells, mammary carcinoma cells known to overexpress MUC1, were grown in the wells of an ELISA plate along with K293 cells, human embryonic kidney cells which will serve as the negative control. 100 μl cells in growth media were added to the wells of an ELISA plate and the cells were allowed to adhere overnight. The number of cells in each well on the plate were then counted and recorded. 1 μl of a drug candidate in DMSO was then added to each well of both the T47D cells and the K293 cells. 1 μl DMSO alone was added to control wells. Each well was repeated in triplet. The cells were allowed to grow for 48 hours, the normal doubling time for these cell lines. The number of cells in each well was again counted and recorded. The percent cell growth over this 48-hour period was calculated, and the percent cell growth for wells containing a drug candidate versus DMSO were compared. […] Cell growth in the presence of Etomoxir was […] for T47D cells and 94% for control cells (K293); Cell growth in the presence of L-alpha-methyl-DOPA was 20% for T47D cells and 110% for control cells (K293); Cell growth in the presence of Fusaric acid was 27.7% for T47D cells, and 106.7% for control cells (K293); Cell growth in the absence of any drug (but with an equivalent amount of DMSO added) was 91.3% for T47D cells, and 106.2% for control cells (K293).
# [5] = tested on: K293 cells; assay: Cell proliferation assay, negative control cells treated with drug candidates; format: cell-based, human
# Description: as §1
# [6] = biological target: T2, PSMGFR peptide (Homo sapiens, UniProt P15941, R1131P); assay: Co-elution of drugs with bead-immobilized His-PSMGFR peptide (HPLC / TLC); format: binding; conditions: eluates from NTA-nickel beads analyzed by TLC
# T2 construct: made in house; host or cells: chemical synthesis (synthetic peptide)
# T2 sequence (P15941 with tags, fused parts or gaps R1131P): T1 sequence (P15941 with tags, fused parts or gaps R1131P)
# Description: The His-PSMGFR peptide was attached to NTA-nickel agarose beads then separately incubated with each of the drug candidates. 100 μl beads were bound to saturation with 1 mg peptide, rinsed to remove unbound peptide, and incubated with 25 μl 2.7 mg/ml drug candidate in DMSO for one hour in 5 ml phosphate buffer. Unbound drugs were washed away with phosphate buffer, and the peptide was eluted from the beads with PBS, 250 mM imidazole. If the drug candidate bound to the peptide, it would co-elute with the peptide in the imidazole solution. Peptide-drug complexes were then separated by HPLC. HPLC elution peaks from the complex were compared to the elution peaks from the drug, injected alone, and the PSMGFR peptide alone.
# In a similar experiment, eluates from the beads were analyzed by TLC (thin layer chromatography). Two drugs, calcimycin and NS1619 which could be tracked by TLC, because they fluoresced under UV light, were tested. NTA-nickel bead-immobilized peptides were incubated with the drugs as described above, rinsed and eluted from the beads, then rotoevaporated to remove the aqueous buffer. The solid was then resuspended in ethylacetate, 5% methanol and spotted on TLC plates then run in the same organic solvent. […] Calcimycin, gave a clear blue spot under 250 nm UV light and ran at a less polar position (as expected) than the peptide itself. […]
Compound,Self-aggregation of colloid-immobilized peptide (color change pink to blue) [1],Interruption of the interaction of MGFR with its ligand(s) (colloid solution stays pink) [3],Cell growth (percent cell growth over 48 hours) [5] [%],other results
"PSIBR: Primary Sequence of the Interchain Binding Region; tested histidine-tagged, SEQ ID NO: 4 (GFLGLSNIKFRPGSVVVQLTLAFRE; not fully specified (N-terminus); also: tested histidine-tagged, tag position not given here)",self-aggregates in a high affinity interaction,–,–,–
"PSMGFR: Primary Sequence of the MUC1 Growth Factor Receptor, SEQ ID NO: 7 (GTINVHDVETQFNQYKTEAASPYNLTISDVSVSDVPFPFSAQSGA; Primary Sequence of the MUC1 Growth Factor Receptor (PSMGFR))",–,–,–,Cell proliferation after adding peptide to Etomoxir-treated cells ([2]; Etomoxir approx. 100 micromolar present): increased cell proliferation
CCOC(=O)[C@@]1(CCCCCCOc2ccc(Cl)cc2)CO1 [Etomoxir],–,interrupt the interaction of MGFR with its ligand(s),94,Selective inhibition of proliferation of MUC1-expressing tumor cells over control cells [4]: selectively inhibited proliferation of the MUC1-expressing tumor cells over K293 negative control cells; Cell proliferation in the presence of drug ([2]; approx. 100 micromolar): arrested
CCCC[C@@]1(C2CCCC2)Cc2cc(OCC(=O)O)c(Cl)c(Cl)c2C1=O [butylindazone],–,interrupt the interaction of MGFR with its ligand(s),–,–
O=c1[nH]c2cc(C(F)(F)F)ccc2n1-c1cc(C(F)(F)F)ccc1O [NS1619],–,interrupt the interaction of MGFR with its ligand(s),–,"Direct binding to PSMGFR peptide (co-elution, TLC) [6]: co-eluted with the PSMGFR peptide"
CCCCc1ccc(C(=O)O)nc1 [Fusaric acid],–,–,106.7,Cell growth (percent cell growth over 48 hours) [4]: 27.7%
C[C@](N)(Cc1ccc(O)c(O)c1)C(=O)O [L-alpha-methyl-DOPA],–,interrupt the interaction of MGFR with its ligand(s),110,Cell growth (percent cell growth over 48 hours) [4]: 20%; Selective inhibition of proliferation of MUC1-expressing tumor cells over control cells [4]: selectively inhibited proliferation of the MUC1-expressing tumor cells over K293 negative control cells
CNc1ccc2oc(C[C@H]3O[C@@]4(CC[C@H]3C)O[C@H]([C@H](C)C(=O)c3ccc[nH]3)[C@H](C)C[C@H]4C)nc2c1C(=O)O [calcimycin],–,interrupt the interaction of MGFR with its ligand(s),–,"Direct binding to PSMGFR peptide (co-elution, TLC) [6]: co-eluted with the PSMGFR peptide"
"ESMGFR: Histidine-tagged Extended Sequence of MUC1 Growth Factor Receptor, SEQ ID NO: 3 (VQLTLAFREGTINVHDVETQFNQYKTEAASPYNLTISDVSVSDVPFPFHHHHHH; “Extended Sequence of the MUC1 Growth Factor Receptor” (ESMGFR))",self-aggregated,–,–,–
"His-PSMGFR: Histidine-tagged PSMGFR peptide, SEQ ID NO: 2 (GTINVHDVETQFNQYKTEAASPYNLTISDVSVSDVPFPFSAQSGAHHHHHH; His-PSMGFR peptides)",completely free of self-aggregation,–,–,–
